Experimental data reported in patent US9976142B2, “Targeting molecule and a use thereof” (Nitto Denko Corporation, priority 2014, dated 2018).
Square brackets hold non-standard residues; d marks the D form. Ends that are not written are not given here.

System: rat hepatic stellate cells (HSCs)
Assay: siRNA introduction into rat hepatic stellate cells with targeting molecule/LipoTrust/siRNA lipoplex; HSP47 expression by quantitative PCR
Format: cell-based
Conditions: siRNA 11.5 μg/ml; for HSP47 expression rate (%): FIG. 2, HSP47 relative to GAPDH, untreated cell = 100; for suppression of HSP47 expression: peptide stock solutions 1.1-10 mM; for extent of the suppression of the expression of HSP47 gene, compared with RBP Loop 1: FIG. 3; for extent of the suppression of the expression of HSP47 gene, compared with RBP Loop 1 / expression rate of HSP47 gene: peptide 7.7 μM; for expression rate of HSP47 gene: FIG. 5
Description: LipoTrust™ SR was dissolved in nuclease-free water (Ambion, Cat. No. AM9937) at a concentration of 1 mM of the cationic lipid. 10 μl of this liposome solution was placed in an Eppendorf tube, to which added 1 μl of the stock solution of each peptide above dissolved in DMSO at predetermined concentration (1.1 mM, 1.25 mM, 2.5 mM, 3.4 mM, 5 mM or 10 mM for experiments whose results are shown in FIG. 1; 90 mM for experiments whose results are shown in FIG. 2) or the stock solution of vitamin A above, and the mixture was vortexed for 15 seconds. To this mixture, 1.5 μl of the above siRNA stock solution was added and mixed, then 17.5 μl of 5% glucose aq. solution (OTSUKA GLUCOSE INJECTION 5%, Otsuka Pharmaceutical Co., Ltd.) was added and mixed. Thus obtained solution of liposome-peptide (or vitamin A)-siRNA complex (lipoplex) was left still under shade for 15 min at room temperature. Also, a mixture of the peptide and siRNA without LipoTrust™ SR was prepared as a control.
Two days before the siRNA introduction, hepatic stellate cells (HSCs) prepared from a rat liver according to the method of Schaefer et al. (Schaefer et al., Hepatology. 1987 July-August; 7(4):680-7) were inoculated uniformly onto a 6-well plate at a density of 0.2×10^5/well and cultured in a Dulbecco's modified Eagle's medium (D-MEM, Sigma Aldrich, Cat. No. D6546, hereinbelow referred to as “culture medium”) containing 10% fetal bovine serum (Thermo HyClone, Cat. No. SH30070.03), 2% L-glutamine (Sigma Aldrich, Cat. No. G7513) and 1% penicillin-streptomycin (Sigma Aldrich, Cat. No. G1146).
The culture medium was removed, 900 μl of fresh culture medium was added to each well, and then this was incubated for at least 30 minutes at 37° C. To 30 μl of each lipoplex solution obtained in Example 1, 100 μl of 5% glucose solution was added to make a mixed solution of 130 μl, and 100 μl of said mixture was added to corresponding well. The final concentration of the siRNA at this time was 11.5 μg/ml. After incubating at 37° C., in 5% CO2 for 30 minutes, the medium comprising the lipoplex solution was removed and substituted with the culture medium, and this was cultured under normal condition for 24-36 hours.
Total RNA extraction of each sample was carried out using RNeasy Mini kit (Qiagen). Firstly, the culture medium was removed, and 350 μl/well each of RLT/2ME solution which was prepared in advance by mixing RLT solution attached to RNeasy Mini kit with 1% (v/v) 2-mercaptoethanol (2ME, Wako) was dispensed into each well. Total volume of the cell lysate was homogenized with QIAshredder (Qiagen), centrifuged at 4° C. and 12000 rpm for 2 min, and then total RNA was extracted according to the manufacturer's instruction. The obtained RNA was quantified using NanoDrop 2000 (Thermo Fisher Scientific), and cDNA was synthesized by RT-PCR. 20 μl total volume/tube of the reaction solution consisting of 4 μl of the reverse transcriptase mix (Super Script VILO Master Mix, Invitrogen, 11755-250) and 16 μl of total RNA of each sample (containing 100-500 ng or more RNA) was reacted at 25° C. for 5 min, at 42° C. for 60 min, then at 85° C. for 5 min, respectively, and subsequently stored at 4° C.
The suppression of HSP47 expression was analyzed by quantitative PCR. As a standard template, the untreated cell sample was used in 10-fold dilution series (the stock solution, 10- and 100-fold dilutions). To each well of MicroAmp (Optical 96-well Reaction Plate, Applied Biosystems, Cat. No. 4306737) added a 48 μl premix consisting of 22 μl of sterile water, 25 μl of Power SYBR® Green (Applied Biosystems, Cat. No. 4367669) and 1 μl of primer mix. The primer mix comprises 50 μM each of the primer set against HSP47 or GAPDH, an internal standard gene, as shown below:
To the corresponding well, 2 μl of the template cDNA obtained from each sample was added to make a total volume of 50 μl. […]

[1] = each peptide at final concentration 69.2 μM, smaller value = greater suppression

AKKDPEGLFLQD (Peptide No. 10-2)
HSP47 expression rate (%) [1]: 48.5%

AKGRVRLLNNWDVCA (Synthetic RBP loop 2)
suppression of HSP47 expression (FIG. 1): concentration-dependent suppression of HSP47 expression

AKDKPEGLFLQDNI (Variant peptide D3K4) [Mutant peptide 2]
extent of the suppression of the expression of HSP47 gene, compared with RBP Loop 1: lower

AKKDPEGLFLQDN (Peptide No. 10-1)
HSP47 expression rate (%) [1]: 39.3%

AKFQKLEPGDDLNI (Scramble peptide) [scrambled peptide, negative control, reference compound]
expression rate of HSP47 gene: almost the same as the result in the group using no targeting molecule

CC1=C(/C=C/C(C)=C/C=C/C(C)=C/CO)C(C)(C)CCC1 [VA, all-trans-retinol, reference compound]
HSP47 expression rate (%) (VA at final concentration 7.7 μM): 46.8%

KKDPEGLFLQDNI (Peptide No. 10-3)
HSP47 expression rate (%) [1]: 31.2%

d-INDQLFLGEPDKKA-amide ([dI][dN][dD][dQ][dL][dF][dL]G[dE][dP][dD][dK][dK][dA]-NH2; N-terminus assumed; SMILES CC[C@@H](C)[C@@H](N)C(=O)N[C@H](CC(N)=O)C(=O)N[C@H](CC(=O)O)C(=O)N[C@H](CCC(N)=O)C(=O)N[C@H](CC(C)C)C(=O)N[C@H](Cc1ccccc1)C(=O)N[C@H](CC(C)C)C(=O)NCC(=O)N[C@H](CCC(=O)O)C(=O)N1CCC[C@@H]1C(=O)N[C@H](CC(=O)O)C(=O)N[C@H](CCCCN)C(=O)N[C@H](CCCCN)C(=O)N[C@H](C)C(N)=O) [retro-inverso peptide]
targetability (suppression of HSP47) (FIG. 4, peptide 23.1 μM): almost the same targetability as that of RBP Loop 1

KDPEGLFLQDNI (Peptide No. 10-4)
HSP47 expression rate (%) [1]: 42.9%

KKDPEGLFLQD (Peptide No. 10-5)
HSP47 expression rate (%) [1]: 40.4%

KDPEGLFLQDN (Peptide No. 10-6)
HSP47 expression rate (%) [1]: 44.3%

AKEDPKGLFLQDNI (Variant peptide E3K6) [Mutant peptide 1]
extent of the suppression of the expression of HSP47 gene, compared with RBP Loop 1: lower

AKKDPEGLFLQDNI (Synthetic RBP loop 1)
suppression of HSP47 expression (FIG. 1): concentration-dependent suppression of HSP47 expression | suppression rate by the complex, compared with vitamin A (FIG. 1): comparable to that by vitamin A | HSP47 expression rate (%) [1]: 49.0% | expression rate of HSP47 gene: significantly decreased

AKDDPEGLFLQKNI (Variant peptide D3K12) [Mutant peptide 3]
extent of the suppression of the expression of HSP47 gene, compared with RBP Loop 1: lower

KDPEGLFLQD (Peptide No. 10)
HSP47 expression rate (%) [1]: 57.2%
